# Reference: paper PMC6422671 (British Journal of Clinical Pharmacology, 2019)
# Experiment: Clinical laboratory findings: haematology; data mean (standard deviation)
# Type: in vivo, healthy men
# Text: Data are mean (standard deviation).
smiles,measurement,setting,value
C[C@@H](N)c1cc(Cl)ccc1Cn1c(=S)[nH]c(=O)c2[nH]ccc21 [AZD4831],Basophils,"5 mg fasted, 24 h",0.03 (0.01) 10^9 L^–1
same,Eosinophils,"5 mg fasted, 24 h",0.25 (0.12) 10^9 L^–1
same,Erythrocyte MCH,"5 mg fasted, 24 h",29.8 (1.2) pg
same,Erythrocyte MCH concentration,"5 mg fasted, 24 h",340 (5) g L^–1
same,Erythrocyte MCV,"5 mg fasted, 24 h",87.5 (3.3) fL
same,Erythrocytes,"5 mg fasted, 24 h",4.90 (0.28) 10^12 L^–1
same,Haematocrit,"5 mg fasted, 24 h",0.43 (0.02) ratio
same,Haemoglobin,"5 mg fasted, 24 h",146 (6) g L^–1
same,Leukocytes,"5 mg fasted, 24 h",5.43 (0.71) 10^9 L^–1
same,Lymphocytes,"5 mg fasted, 24 h",1.62 (0.37) 10^9 L^–1
same,Monocytes,"5 mg fasted, 24 h",0.37 (0.06) 10^9 L^–1
same,Neutrophils,"5 mg fasted, 24 h",3.07 (0.47) 10^9 L^–1
same,Platelets,"5 mg fasted, 24 h",246 (44) 10^9 L^–1
same,Reticulocytes,"5 mg fasted, 24 h",76.9 (15.3) 10^9 L^–1
same,Basophils,"5 mg fasted, 48 h",0.04 (0.02) 10^9 L^–1
same,Eosinophils,"5 mg fasted, 48 h",0.23 (0.10) 10^9 L^–1
same,Erythrocyte MCH,"5 mg fasted, 48 h",29.6 (1.0) pg
same,Erythrocyte MCH concentration,"5 mg fasted, 48 h",338 (6) g L^–1
same,Erythrocyte MCV,"5 mg fasted, 48 h",87.7 (3.1) fL
same,Erythrocytes,"5 mg fasted, 48 h",4.88 (0.26) 10^12 L^–1
same,Haematocrit,"5 mg fasted, 48 h",0.43 (0.02) ratio
same,Haemoglobin,"5 mg fasted, 48 h",145 (7) g L^–1
same,Leukocytes,"5 mg fasted, 48 h",5.74 (1.20) 10^9 L^–1
same,Lymphocytes,"5 mg fasted, 48 h",1.60 (0.38) 10^9 L^–1
same,Monocytes,"5 mg fasted, 48 h",0.38 (0.06) 10^9 L^–1
same,Neutrophils,"5 mg fasted, 48 h",3.38 (1.02) 10^9 L^–1
same,Platelets,"5 mg fasted, 48 h",240 (50) 10^9 L^–1
same,Reticulocytes,"5 mg fasted, 48 h",84.4 (20.3) 10^9 L^–1
same,Basophils,"5 mg fasted, follow up",0.04 (0.01) 10^9 L^–1
same,Eosinophils,"5 mg fasted, follow up",0.26 (0.12) 10^9 L^–1
same,Erythrocyte MCH,"5 mg fasted, follow up",29.5 (1.1) pg
same,Erythrocyte MCH concentration,"5 mg fasted, follow up",334 (5) g L^–1
same,Erythrocyte MCV,"5 mg fasted, follow up",88.2 (3.1) fL
same,Erythrocytes,"5 mg fasted, follow up",4.98 (0.36) 10^12 L^–1
same,Haematocrit,"5 mg fasted, follow up",0.44 (0.02) ratio
same,Haemoglobin,"5 mg fasted, follow up",147 (8) g L^–1
same,Leukocytes,"5 mg fasted, follow up",5.94 (1.03) 10^9 L^–1
same,Lymphocytes,"5 mg fasted, follow up",1.47 (0.34) 10^9 L^–1
same,Monocytes,"5 mg fasted, follow up",0.45 (0.15) 10^9 L^–1
same,Neutrophils,"5 mg fasted, follow up",3.59 (0.73) 10^9 L^–1
same,Platelets,"5 mg fasted, follow up",249 (38) 10^9 L^–1
same,Reticulocytes,"5 mg fasted, follow up",91.6 (15.7) 10^9 L^–1
same,Basophils,"15 mg fasted, 24 h",0.04 (0.01) 10^9 L^–1
same,Eosinophils,"15 mg fasted, 24 h",0.21 (0.07) 10^9 L^–1
same,Erythrocyte MCH,"15 mg fasted, 24 h",29.6 (0.7) pg
same,Erythrocyte MCH concentration,"15 mg fasted, 24 h",341 (2) g L^–1
same,Erythrocyte MCV,"15 mg fasted, 24 h",86.8 (2.0) fL
same,Erythrocytes,"15 mg fasted, 24 h",5.08 (0.27) 10^12 L^–1
same,Haematocrit,"15 mg fasted, 24 h",0.44 (0.03) ratio
same,Haemoglobin,"15 mg fasted, 24 h",150 (9) g L^–1
same,Leukocytes,"15 mg fasted, 24 h",5.94 (1.90) 10^9 L^–1
same,Lymphocytes,"15 mg fasted, 24 h",1.75 (0.55) 10^9 L^–1
same,Monocytes,"15 mg fasted, 24 h",0.46 (0.17) 10^9 L^–1
same,Neutrophils,"15 mg fasted, 24 h",3.37 (1.36) 10^9 L^–1
same,Platelets,"15 mg fasted, 24 h",193 (28) 10^9 L^–1
same,Reticulocytes,"15 mg fasted, 24 h",77.2 (18.6) 10^9 L^–1
same,Basophils,"15 mg fasted, 48 h",0.04 (0.01) 10^9 L^–1
same,Eosinophils,"15 mg fasted, 48 h",0.22 (0.07) 10^9 L^–1
same,Erythrocyte MCH,"15 mg fasted, 48 h",29.5 (1.1) pg
same,Erythrocyte MCH concentration,"15 mg fasted, 48 h",340 (7) g L^–1
same,Erythrocyte MCV,"15 mg fasted, 48 h",86.9 (2.9) fL
same,Erythrocytes,"15 mg fasted, 48 h",5.03 (0.23) 10^12 L^–1
same,Haematocrit,"15 mg fasted, 48 h",0.44 (0.02) ratio
same,Haemoglobin,"15 mg fasted, 48 h",148 (8) g L^–1
same,Leukocytes,"15 mg fasted, 48 h",6.08 (1.88) 10^9 L^–1
same,Lymphocytes,"15 mg fasted, 48 h",1.71 (0.49) 10^9 L^–1
same,Monocytes,"15 mg fasted, 48 h",0.52 (0.21) 10^9 L^–1
same,Neutrophils,"15 mg fasted, 48 h",3.47 (1.39) 10^9 L^–1
same,Platelets,"15 mg fasted, 48 h",204 (25) 10^9 L^–1
same,Reticulocytes,"15 mg fasted, 48 h",78.1 (24.5) 10^9 L^–1
same,Basophils,"15 mg fasted, follow up",0.04 (0.02) 10^9 L^–1
same,Eosinophils,"15 mg fasted, follow up",0.22 (0.08) 10^9 L^–1
same,Erythrocyte MCH,"15 mg fasted, follow up",29.1 (1.0) pg
same,Erythrocyte MCH concentration,"15 mg fasted, follow up",334 (2) g L^–1
same,Erythrocyte MCV,"15 mg fasted, follow up",87.3 (2.5) fL
same,Erythrocytes,"15 mg fasted, follow up",5.06 (0.37) 10^12 L^–1
same,Haematocrit,"15 mg fasted, follow up",0.44 (0.03) ratio
same,Haemoglobin,"15 mg fasted, follow up",147 (10) g L^–1
same,Leukocytes,"15 mg fasted, follow up",5.81 (1.43) 10^9 L^–1
same,Lymphocytes,"15 mg fasted, follow up",1.63 (0.38) 10^9 L^–1
same,Monocytes,"15 mg fasted, follow up",0.49 (0.07) 10^9 L^–1
same,Neutrophils,"15 mg fasted, follow up",3.32 (1.20) 10^9 L^–1
same,Platelets,"15 mg fasted, follow up",221 (33) 10^9 L^–1
same,Reticulocytes,"15 mg fasted, follow up",89.9 (32.9) 10^9 L^–1
same,Basophils,"45 mg fasted, 24 h",0.04 (0.02) 10^9 L^–1
same,Eosinophils,"45 mg fasted, 24 h",0.20 (0.12) 10^9 L^–1
same,Erythrocyte MCH,"45 mg fasted, 24 h",28.4 (2.1) pg
same,Erythrocyte MCH concentration,"45 mg fasted, 24 h",335 (8) g L^–1
same,Erythrocyte MCV,"45 mg fasted, 24 h",84.8 (5.8) fL
same,Erythrocytes,"45 mg fasted, 24 h",5.01 (0.18) 10^12 L^–1
same,Haematocrit,"45 mg fasted, 24 h",0.42 (0.03) ratio
same,Haemoglobin,"45 mg fasted, 24 h",142 (9) g L^–1
same,Leukocytes,"45 mg fasted, 24 h",5.28 (1.15) 10^9 L^–1
same,Lymphocytes,"45 mg fasted, 24 h",1.74 (0.42) 10^9 L^–1
same,Monocytes,"45 mg fasted, 24 h",0.37 (0.13) 10^9 L^–1
same,Neutrophils,"45 mg fasted, 24 h",2.83 (0.90) 10^9 L^–1
same,Platelets,"45 mg fasted, 24 h",220 (39) 10^9 L^–1
same,Reticulocytes,"45 mg fasted, 24 h",69.8 (16.4) 10^9 L^–1
same,Basophils,"45 mg fasted, 48 h",0.04 (0.02) 10^9 L^–1
same,Eosinophils,"45 mg fasted, 48 h",0.21 (0.10) 10^9 L^–1
same,Erythrocyte MCH,"45 mg fasted, 48 h",28.4 (2.3) pg
same,Erythrocyte MCH concentration,"45 mg fasted, 48 h",335 (15) g L^–1
same,Erythrocyte MCV,"45 mg fasted, 48 h",84.9 (5.9) fL
same,Erythrocytes,"45 mg fasted, 48 h",5.02 (0.33) 10^12 L^–1
same,Haematocrit,"45 mg fasted, 48 h",0.43 (0.03) ratio
same,Haemoglobin,"45 mg fasted, 48 h",142 (8) g L^–1
same,Leukocytes,"45 mg fasted, 48 h",5.69 (1.06) 10^9 L^–1
same,Lymphocytes,"45 mg fasted, 48 h",1.79 (0.36) 10^9 L^–1
same,Monocytes,"45 mg fasted, 48 h",0.38 (0.10) 10^9 L^–1
same,Neutrophils,"45 mg fasted, 48 h",3.16 (0.95) 10^9 L^–1
same,Platelets,"45 mg fasted, 48 h",222 (44) 10^9 L^–1
same,Reticulocytes,"45 mg fasted, 48 h",77.3 (19.5) 10^9 L^–1
same,Basophils,"45 mg fasted, follow up",0.05 (0.02) 10^9 L^–1
same,Eosinophils,"45 mg fasted, follow up",0.20 (0.15) 10^9 L^–1
same,Erythrocyte MCH,"45 mg fasted, follow up",28.3 (2.3) pg
same,Erythrocyte MCH concentration,"45 mg fasted, follow up",333 (10) g L^–1
same,Erythrocyte MCV,"45 mg fasted, follow up",85.0 (5.8) fL
same,Erythrocytes,"45 mg fasted, follow up",5.08 (0.35) 10^12 L^–1
same,Haematocrit,"45 mg fasted, follow up",0.43 (0.02) ratio
same,Haemoglobin,"45 mg fasted, follow up",143 (7) g L^–1
same,Leukocytes,"45 mg fasted, follow up",5.88 (1.09) 10^9 L^–1
same,Lymphocytes,"45 mg fasted, follow up",1.61 (0.45) 10^9 L^–1
same,Monocytes,"45 mg fasted, follow up",0.45 (0.13) 10^9 L^–1
same,Neutrophils,"45 mg fasted, follow up",3.45 (1.25) 10^9 L^–1
same,Platelets,"45 mg fasted, follow up",245 (38) 10^9 L^–1
same,Reticulocytes,"45 mg fasted, follow up",79.1 (19.3) 10^9 L^–1
